The values that follow come from article PMC10580393, “The Psychedelic N,N-Dipropyltryptamine Prevents Seizures in a Mouse Model of Fragile X Syndrome via a Mechanism that Appears Independent of Serotonin and Sigma1 Receptors” (ACS Pharmacology & Translational Science, 2023).

Holding throughout (details): read-out: DPT
Assay [1] has as its target T1, human 5-HT1A receptor (h5-HT1AR) (Homo sapiens, UniProt P08908).
T1 construct: gene HTR1A; receptor cDNA (cDNA Resource Center) transiently expressed in HEK293T; with Rluc8-Galphai3, Gbeta3, GFP2-Ggamma9 for function
The experiment in a line: TRUPATH BRET2 G protein activation assay, HEK293T. The assay is classed as cell-based. The source says:
TRUPATH BRET2 G protein activation assay, HEK293T on human 5-HT1A receptor (h5-HT1AR)
Background: In BRET a luciferase serves as donor, and the signal depends on an acceptor being close.

Assay [2] has as its target T2, human 5-HT1B receptor (h5-HT1BR) (Homo sapiens, UniProt P28222).
T2 construct: gene HTR1B; receptor cDNA (cDNA Resource Center) transiently expressed in HEK293T; with Rluc8-Galphai3, Gbeta3, GFP2-Ggamma9 for function
The experiment in a line: TRUPATH BRET2 G protein activation assay, HEK293T. The assay is classed as cell-based. An excerpt:
TRUPATH BRET2 G protein activation assay, HEK293T on human 5-HT1B receptor (h5-HT1BR)

For assay [3], the target named is T1, human 5-HT1A receptor (h5-HT1AR). The experiment in a line: radioligand competition binding, cell membranes. The source says:
radioligand competition binding, cell membranes on human 5-HT1A receptor (h5-HT1AR)

In assay [4] the target is T2, human 5-HT1B receptor (h5-HT1BR). The experiment in a line: radioligand competition binding, cell membranes. The source says:
radioligand competition binding, cell membranes on human 5-HT1B receptor (h5-HT1BR)

For assay [5], the target named is T3, human 5-HT2A receptor (h5-HT2AR) (Homo sapiens, UniProt P28223).
T3 construct: gene HTR2A; receptor cDNA (cDNA Resource Center) transiently expressed in HEK293T; with Rluc8-Galphaq, Gbeta3, GFP2-Ggamma9 for function
As to the kind of experiment: radioligand competition binding, cell membranes. The source says: radioligand competition binding, cell membranes on human 5-HT2A receptor (h5-HT2AR)

For assay [6], the target named is T3, human 5-HT2A receptor (h5-HT2AR). The experiment in a line: TRUPATH BRET2 G protein activation assay, HEK293T. The assay is classed as cell-based. An excerpt:
TRUPATH BRET2 G protein activation assay, HEK293T on human 5-HT2A receptor (h5-HT2AR)

pEC50, pKi: −log10 of the molar value.

T1 sequence (P08908 whole entry): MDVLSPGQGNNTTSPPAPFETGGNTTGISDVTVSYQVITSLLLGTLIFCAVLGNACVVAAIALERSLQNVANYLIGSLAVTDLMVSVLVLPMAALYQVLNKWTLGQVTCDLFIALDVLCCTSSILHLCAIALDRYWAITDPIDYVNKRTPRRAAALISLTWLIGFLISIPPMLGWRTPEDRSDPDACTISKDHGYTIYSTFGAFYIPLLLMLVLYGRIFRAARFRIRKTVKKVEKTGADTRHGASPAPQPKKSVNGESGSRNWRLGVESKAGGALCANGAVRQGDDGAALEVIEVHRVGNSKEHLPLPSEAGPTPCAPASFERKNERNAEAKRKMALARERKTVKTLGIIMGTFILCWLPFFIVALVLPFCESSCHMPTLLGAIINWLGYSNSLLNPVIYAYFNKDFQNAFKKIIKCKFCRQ
T3 sequence (P28223 whole entry): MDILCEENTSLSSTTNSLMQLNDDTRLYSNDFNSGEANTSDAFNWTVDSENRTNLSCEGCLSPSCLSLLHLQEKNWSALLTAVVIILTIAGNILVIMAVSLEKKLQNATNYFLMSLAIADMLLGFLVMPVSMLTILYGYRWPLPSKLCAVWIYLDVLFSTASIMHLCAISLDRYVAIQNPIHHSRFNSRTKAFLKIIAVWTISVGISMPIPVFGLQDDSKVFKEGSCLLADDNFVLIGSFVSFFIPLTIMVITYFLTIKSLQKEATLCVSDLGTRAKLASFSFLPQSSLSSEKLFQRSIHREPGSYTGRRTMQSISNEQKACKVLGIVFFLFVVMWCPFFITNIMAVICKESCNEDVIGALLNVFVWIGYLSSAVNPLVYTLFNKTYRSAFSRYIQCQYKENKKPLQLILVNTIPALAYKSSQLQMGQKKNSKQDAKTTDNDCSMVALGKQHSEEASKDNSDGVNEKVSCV
T2 sequence (P28222 whole entry): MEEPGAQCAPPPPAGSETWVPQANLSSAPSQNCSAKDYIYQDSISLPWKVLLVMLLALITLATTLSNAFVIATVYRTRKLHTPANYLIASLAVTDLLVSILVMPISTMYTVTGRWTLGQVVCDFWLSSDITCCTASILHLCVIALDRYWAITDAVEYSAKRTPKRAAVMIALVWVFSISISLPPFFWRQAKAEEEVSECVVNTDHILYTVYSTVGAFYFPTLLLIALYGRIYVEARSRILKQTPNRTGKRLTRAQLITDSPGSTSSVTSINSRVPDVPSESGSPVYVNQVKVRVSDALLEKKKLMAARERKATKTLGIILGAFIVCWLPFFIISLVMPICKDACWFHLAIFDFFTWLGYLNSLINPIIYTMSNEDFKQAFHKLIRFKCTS

Regarding `CCCN(CCC)CCc1c[nH]c2ccccc12` [DPT], the pEC50 was 5.61 in assay [1], 5.92 in assay [2] and 6.35 in assay [6]. In addition, the values for the pKi in assay [3], in assay [4] and in assay [5] were 5.78, 5.09 and 8.52, respectively.
